Measured values: patent US20060199819A1, “Inhibition of cyclooxygenase-2 activity” (Celgene Corporation, priority 2000, published 2006)

Legend:
cyclooxygenase-2 = experiment: LPS-mediated induction of cyclooxygenase-2 in macrophages (RAW 264.7 cells); assay type: cell-based; conditions: macrophages in RAW 264.7 cells; as little as 50 μM
From the text: (§1) Cyclooxygenase-2, the rate-limiting enzyme in prostaglandin biosynthesis, is expressed in tumor associated macrophages. Because prostaglandins, notable PGE2, are important mediators of inflammatory response and angiogenesis, inhibition of their biosynthesis can be used to combat these effects. Inhibition of the cyclooxygenase-2 protein by a test compound can be conveniently observed in cells in which induction of the protein has been induced by lipopolysaccharide (LPS). Thus it is known that LPS enhances cyclooxygenase-2 transcription and this effect thus can be used as convenient model for evaluating cyclooxygenase-2 inhibition.
(§2) In one experiment, LPS-mediated induction of cyclooxygenase-2, as well as PGE2 biosynthesis, in macrophages in RAW 264.7 cells was blocked by as little as 50 μM of 3-phthalimido-2,6-dioxopiperidine. It appears, however, that LPS-enhanced cyclooxy-genase-2 transcription is not itself effected by the amide or imide. That is, the amide or imide has no effect on the induction of cyclooxygenase-2 by LPS. On the other hand, the amide or imide enhances the degradation of cyclooxygenase-2 messenger RNA. Consequently while not wishing to be bound by any theory, it appears the inhibitory effect of the amide or imide operates on the activity of cyclooxygenase-2 by some post-transcriptional mechanism.

PGE2 biosynthesis = experiment: LPS-mediated PGE2 biosynthesis in macrophages (RAW 264.7 cells); assay type: cell-based; conditions: macrophages in RAW 264.7 cells, as little as 50 μM
From the text: as §1, §2

What does the source list for `O=C1CCC(N2C(=O)c3ccccc3C2=O)C(=O)N1` (centres unmarked) [3-phthalimido-2,6-dioxopiperidine]?
LPS-mediated induction of cyclooxygenase-2 (cyclooxygenase-2): blocked; PGE2 biosynthesis (PGE2 biosynthesis): blocked
